Measured values from patent US8536168B2 (Novartis AG, priority 2007, dated 2013).
Read-outs that look alike come from different tables or passages of the source.

Legend:
[1] = test system: Gli-luciferase activity; experiment: Reporter gene assay (RGA) in TMHh12 cells, antagonism of Gli-luciferase activity in the presence of a Smo agonist; format: cell-based
Method: Activity of the compounds was evaluated using a reporter gene assay (RGA) in TMHh12 cells.

[2] = molecular target: mouse Smoothened receptor (Mus musculus, UniProt P56726); experiment: Smo binding assay, displacement of radio-labeled smoothened agonist, filter binding format (mouse); conditions: displacement of small molecule agonist of Smoothened, read-out: Mouse Smo bdg., IC50
mouse Smoothened receptor, sequence (P56726 33-793): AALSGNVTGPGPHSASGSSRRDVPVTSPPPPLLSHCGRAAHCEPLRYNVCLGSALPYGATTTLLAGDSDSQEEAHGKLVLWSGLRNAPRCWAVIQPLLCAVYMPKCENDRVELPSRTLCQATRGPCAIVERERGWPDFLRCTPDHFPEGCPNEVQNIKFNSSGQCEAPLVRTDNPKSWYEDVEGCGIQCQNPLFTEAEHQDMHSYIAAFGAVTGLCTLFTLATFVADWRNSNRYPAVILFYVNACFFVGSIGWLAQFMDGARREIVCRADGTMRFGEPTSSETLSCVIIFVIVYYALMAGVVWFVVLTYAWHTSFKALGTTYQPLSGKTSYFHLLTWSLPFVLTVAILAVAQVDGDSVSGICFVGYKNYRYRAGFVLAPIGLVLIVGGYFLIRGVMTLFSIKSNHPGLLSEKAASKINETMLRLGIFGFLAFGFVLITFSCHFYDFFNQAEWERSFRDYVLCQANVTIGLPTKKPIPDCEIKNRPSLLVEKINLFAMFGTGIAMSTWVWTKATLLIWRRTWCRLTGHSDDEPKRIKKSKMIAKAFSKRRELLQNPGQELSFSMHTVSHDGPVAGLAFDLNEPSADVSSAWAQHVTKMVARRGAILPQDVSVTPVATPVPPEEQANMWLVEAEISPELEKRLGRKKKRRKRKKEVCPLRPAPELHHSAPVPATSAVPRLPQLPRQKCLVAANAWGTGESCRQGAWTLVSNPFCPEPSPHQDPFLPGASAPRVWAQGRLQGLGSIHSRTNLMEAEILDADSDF
Source text: A Smo binding assay was developed using radio-labeled smoothened agonist for compound competition.

[3] = molecular target: human Smoothened receptor (Homo sapiens, UniProt Q99835); experiment: Smo binding assay, displacement of radio-labeled smoothened agonist, filter binding format (human); conditions: displacement of small molecule agonist of Smoothened, read-out: Human Smo bdg., IC50
human Smoothened receptor, sequence (Q99835 28-787): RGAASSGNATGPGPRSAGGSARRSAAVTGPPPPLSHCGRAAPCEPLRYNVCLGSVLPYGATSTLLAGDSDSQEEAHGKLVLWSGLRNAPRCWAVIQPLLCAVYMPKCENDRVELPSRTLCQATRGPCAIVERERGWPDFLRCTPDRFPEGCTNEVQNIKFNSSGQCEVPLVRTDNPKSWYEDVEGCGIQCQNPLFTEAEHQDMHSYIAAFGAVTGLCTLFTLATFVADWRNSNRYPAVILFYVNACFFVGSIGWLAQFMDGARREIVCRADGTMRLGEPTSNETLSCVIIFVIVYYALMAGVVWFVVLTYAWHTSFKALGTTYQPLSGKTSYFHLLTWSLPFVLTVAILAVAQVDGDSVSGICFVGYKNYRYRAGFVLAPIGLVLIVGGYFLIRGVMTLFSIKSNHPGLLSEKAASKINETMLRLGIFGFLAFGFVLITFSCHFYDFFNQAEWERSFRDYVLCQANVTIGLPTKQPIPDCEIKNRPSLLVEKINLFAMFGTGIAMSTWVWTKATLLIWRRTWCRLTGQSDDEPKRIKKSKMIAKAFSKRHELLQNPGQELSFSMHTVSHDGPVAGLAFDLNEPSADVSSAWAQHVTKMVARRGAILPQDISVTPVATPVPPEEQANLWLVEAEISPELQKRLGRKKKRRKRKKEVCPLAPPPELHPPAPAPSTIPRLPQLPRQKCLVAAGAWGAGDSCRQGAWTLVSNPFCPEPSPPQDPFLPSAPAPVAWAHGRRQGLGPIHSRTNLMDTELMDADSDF
Source text: A Smo binding assay was developed using radio-labeled smoothened agonist for compound competition. Table 9 lists the IC50 for displacement of a small molecule agonist of Smoothened determined in a filter binding format for the mouse and human Smoothened receptor.

[4] = 25 nM small molecule Smo agonist, read-out: RGA (25 nM Smo agonist) IC50
[5] = read-out: RGA (1 nM Smo agonist) IC50, 1 nM small molecule Smo agonist

IC50 [1, 4] | IC50 [1, 5] | IC50 [2] | IC50 [3] | Compound
1000 to 10000 nM | < 100 nM | 100 to 1000 nM | 100 to 1000 nM | Cc1cccc(Cc2nnc(N3CCN(c4ccc(C#N)cn4)CC3)c3ccccc23)c1 [Example 69]
100 to 1000 nM | < 100 nM | 100 to 1000 nM | 100 to 1000 nM | CC(=O)NCc1ccc(N2CCN(c3nnc(Cc4ccccc4)c4ccccc34)CC2)nc1 [Example 70, N-{6-[4-(4-Benzyl-phthalazin-1-yl)-piperazin-1-yl]-pyridin-3-ylmethyl}-acetamide]
100 to 1000 nM | < 100 nM | 100 to 1000 nM | 100 to 1000 nM | CCC(=O)NCc1ccc(N2CCN(c3nnc(Cc4ccccc4)c4ccccc34)CC2)cc1 [Example 78a]
100 to 1000 nM | < 100 nM | 100 to 1000 nM | 100 to 1000 nM | COCC(=O)NCc1ccc(N2CCN(c3nnc(Cc4ccccc4)c4ccccc34)CC2)cc1 [Example 78b]
< 100 nM | < 100 nM | < 100 nM | < 100 nM | CC(C)CC(=O)NCc1ccc(N2CCN(c3nnc(Cc4ccccc4)c4ccccc34)CC2)cc1 [Example 78c]
100 to 1000 nM | 100 to 1000 nM | 100 to 1000 nM | 1000 to 10000 nM | N#Cc1ccc(N2CCN(c3cnc(Cc4ccccc4)c4ccccc34)CC2)nc1 [Example 79, 6-[4-(1-Benzyl-isoquinolin-4-yl)-piperazin-1-yl]-nicotinonitrile]
10000 to 40000 nM | 1000 to 10000 nM | 1000 to 10000 nM | 10000 to 40000 nM | N#Cc1ccc(N2CCN(c3cnc(Cc4cccc(Cl)c4)c4ccccc34)CC2)nc1 [Example 81]
10000 to 40000 nM | 1000 to 10000 nM | 1000 to 10000 nM | 1000 to 10000 nM | N#Cc1ccc(N2CCN(c3cnc(Cc4cccc(C(F)(F)F)c4)c4ccccc34)CC2)nc1 [Example 82]
100 to 1000 nM | 100 to 1000 nM | 1000 to 10000 nM | 1000 to 10000 nM | N#Cc1ccc(N2CCN(c3ncc(Cc4ccccc4)c4ccccc34)CC2)nc1 [Example 83, 6-[4-(4-Benzyl-isoquinolin-1-yl)-piperazin-1-yl]-nicotinonitrile]
1000 to 10000 nM | < 100 nM | 100 to 1000 nM | 100 to 1000 nM | Cc1cc(Cc2ccc(F)cc2)nnc1N1CCN(c2ccc(C#N)cn2)CC1 [Example 84]
 | 100 to 1000 nM | 100 to 1000 nM | 100 to 1000 nM | Cc1cc(N2CCN(c3ccc(C#N)cn3)CC2)nnc1Cc1ccc(F)cc1 [Example 85]
1000 to 10000 nM | 100 to 1000 nM | 1000 to 10000 nM | 1000 to 10000 nM | Cc1cc(Cc2ccccc2)nnc1N1CCN(c2ccc(C#N)cn2)CC1 [Example 86]
 | 100 to 1000 nM | 100 to 1000 nM | 100 to 1000 nM | Cc1cc(N2CCN(c3ccc(C#N)cn3)CC2)nnc1Cc1ccccc1 [Example 87]
1000 to 10000 nM | < 100 nM | 100 to 1000 nM | 100 to 1000 nM | Cc1cc(Cc2ccccc2)nnc1N1CCN(c2ccc(C(F)(F)F)cn2)CC1 [Example 88]
 | 100 to 1000 nM | < 100 nM | < 100 nM | Cc1cc(N2CCN(c3ccc(C(F)(F)F)cn3)CC2)nnc1Cc1ccccc1 [Example 89]
1000 to 10000 nM | < 100 nM | < 100 nM | < 100 nM | Cc1cc(Cc2ccc(F)cc2)nnc1N1CCN(c2ccc(C(F)(F)F)cn2)CC1 [Example 90]
1000 to 10000 nM | 100 to 1000 nM | 100 to 1000 nM | 100 to 1000 nM | Cc1cc(Cc2ccc(Cl)cc2)nnc1N1CCN(c2ccc(C#N)cn2)CC1 [Example 92]
100 to 1000 nM | 100 to 1000 nM | 100 to 1000 nM | 100 to 1000 nM | N#Cc1ccc(N2CCN(c3nnc(Cc4ccc(F)cc4)c4c3CCCC4)CC2)nc1 [Example 93b]
100 to 1000 nM | < 100 nM | < 100 nM | < 100 nM | N#Cc1ccc(N2CCN(c3nnc(Cc4ccc(F)cc4)c4c3CCC4)CC2)nc1 [Example 93c, 6-{4-[4-(4-Fluoro-benzyl)-6,7-dihydro-5H-cyclopenta[d]pyridazin-1-yl]-piperazin-1-yl}-nicotinonitrile]
1000 to 10000 nM | 100 to 1000 nM | 100 to 1000 nM | 100 to 1000 nM | N#Cc1cccc(C(=O)N2CCC(c3cn(Cc4ccc(F)cc4)c4ccccc34)CC2)c1 [Example 94, 3-{4-[1-(4-Fluoro-benzyl)-1H-indol-3-yl]-piperidine-1-carbonyl}-benzonitrile]
1000 to 10000 nM | < 100 nM | 100 to 1000 nM | 100 to 1000 nM | Fc1ccc(Cn2cc(C3CCN(c4ccc(C(F)(F)F)cn4)CC3)c3ccccc32)cc1 [Example 95, 4-[1-(4-Fluoro-benzyl)-1H-indol-3-yl)-5′-trifluoromethyl-3,4,5,6-tetrahydro-2H-[1,2]-bipyridinyl]
100 to 1000 nM | < 100 nM | 100 to 1000 nM | 100 to 1000 nM | N#Cc1ccc(Cn2cc(C3CCN(c4ccc(C(F)(F)F)cn4)CC3)c3ccccc32)cc1 [Example 96]
1000 to 10000 nM | < 100 nM | 100 to 1000 nM | 100 to 1000 nM | FC(F)(F)c1ccc(N2CCC(c3cn(Cc4ccccc4)c4ccccc34)CC2)nc1 [Example 97]

IC50 [1, 4] | IC50 [1, 5] | IC50 [2] | IC50 [3] | Compound
1000 to 10000 nM | 100 to 1000 nM | 1000 to 10000 nM | 1000 to 10000 nM | N#Cc1ccc(N2CCC(c3cn(Cc4ccc(F)cc4)c4ccccc34)CC2)nc1 [Example 98]
1000 to 10000 nM | 100 to 1000 nM | 100 to 1000 nM | 100 to 1000 nM | FC(F)(F)c1ccc(N2CCC(c3cn(Cc4ccc(Br)cc4)c4ccccc34)CC2)nc1 [Example 99]
1000 to 10000 nM | 100 to 1000 nM | 100 to 1000 nM | 100 to 1000 nM | N#Cc1ccc(N2CCC(c3cn(Cc4ccccc4)c4ccccc34)CC2)nc1 [Example 100]
10000 to 40000 nM | 100 to 1000 nM | 100 to 1000 nM | 100 to 1000 nM | O=C(c1cccc(F)c1)N1CCC(c2cn(Cc3ccc(F)cc3)c3ccccc23)CC1 [Example 101]
 | 100 to 1000 nM | 100 to 1000 nM | 100 to 1000 nM | N#Cc1ccc(C(=O)N2CCC(c3cn(Cc4ccc(F)cc4)c4ccccc34)CC2)cc1 [Example 102]
1000 to 10000 nM | 1000 to 10000 nM | 1000 to 10000 nM | 1000 to 10000 nM | N#Cc1cccc(C(=O)N2CCC(c3cn(Cc4ccccc4)c4ccccc34)CC2)c1 [Example 103]
10000 to 40000 nM | 1000 to 10000 nM | 1000 to 10000 nM | 1000 to 10000 nM | O=C(c1ccc(C(F)(F)F)cc1)N1CCC(c2cn(Cc3ccc(F)cc3)c3ccccc23)CC1 [Example 104]
10000 to 40000 nM | 1000 to 10000 nM | 1000 to 10000 nM | 1000 to 10000 nM | O=C(c1ccc(C(F)(F)F)cc1)N1CCC(c2cn(Cc3ccccc3)c3ccccc23)CC1 [Example 105]
1000 to 10000 nM | 100 to 1000 nM | 1000 to 10000 nM | 1000 to 10000 nM | c1ccc(Cc2nnc(N3CCN(c4ccccc4)CC3)c3ccccc23)cc1 [Example 106]
100 to 1000 nM | < 100 nM | 100 to 1000 nM | 100 to 1000 nM | CP(C)(=O)c1ccc(N2CCN(c3nnc(Cc4ccccc4)c4ccccc34)CC2)nc1 [Example 107]
1000 to 10000 nM | 100 to 1000 nM | 100 to 1000 nM | 100 to 1000 nM | O=C1CN(c2nnc(Cc3ccccc3)c3ccccc23)CCN1c1ccccc1 [Example 108]
100 to 1000 nM | < 100 nM | < 100 nM | < 100 nM | OC(c1ccc(N2CCN(c3nnc(Cc4ccccc4)c4ccccc34)CC2)nc1)C(F)(F)F (centres unmarked) [Example 109]
< 100 nM | < 100 nM | < 100 nM | < 100 nM | OC(c1ccc(N2CCN(c3nnc(Cc4ccccc4)c4ccccc34)CC2)nc1)(C(F)(F)F)C(F)(F)F [Example 110]
100 to 1000 nM | < 100 nM | < 100 nM | 100 to 1000 nM | OC1(c2ccc(N3CCN(c4nnc(Cc5ccccc5)c5ccccc45)CC3)nc2)COC1 [Example 111]
100 to 1000 nM | < 100 nM | < 100 nM | 100 to 1000 nM | FC(F)(F)c1c[nH]c(C2CCN(c3nnc(Cc4ccccc4)c4ccccc34)CC2)n1 [Example 112]
1000 to 10000 nM | 100 to 1000 nM | 100 to 1000 nM | 100 to 1000 nM | c1ccc(Cc2nnc(N3CCC(c4c[nH]c5ccccc45)CC3)c3ccccc23)cc1 [Example 113]
100 to 1000 nM | < 100 nM | < 100 nM | < 100 nM | c1ccc(Cc2nnc(N3CCC(c4nc5ccccc5[nH]4)CC3)c3ccccc23)cc1 [Example 114]
1000 to 10000 nM | 1000 to 10000 nM | 1000 to 10000 nM | 1000 to 10000 nM | COC(=O)c1ccc(C2CCN(c3nnc(Cc4ccccc4)c4ccccc34)CC2)cc1 [Example 115]
1000 to 10000 nM | 1000 to 10000 nM | 1000 to 10000 nM | 1000 to 10000 nM | N#Cc1ccc(C2CCN(c3nnc(Cc4ccccc4)c4ccccc34)CC2)cc1 [Example 116]
100 to 1000 nM | < 100 nM | < 100 nM | < 100 nM | C[C@H]1CN(c2ccc(C#N)cn2)CCN1c1nnc(Cc2ccccc2)c2ccccc12 [Example 117]
1000 to 10000 nM | 100 to 1000 nM | 100 to 1000 nM | 100 to 1000 nM | C[C@@H]1CN(c2ccc(C#N)cn2)CCN1c1nnc(Cc2ccccc2)c2ccccc12 [Example 118]
1000 to 10000 nM | 100 to 1000 nM | 100 to 1000 nM | 100 to 1000 nM | C[C@@H]1CN(c2nnc(Cc3ccccc3)c3ccccc23)[C@@H](C)CN1c1ccc(C#N)cn1 [Example 119]
